Where two headings read alike, the source gives them in different places.
Tests used:
human D2L receptor = target: T1, human D2L receptor (Homo sapiens, UniProt P14416); assay: Fast dissociation (indirect [3H]spiperone filter assay); assay type: binding; conditions: compound at 4 times its IC50 pre-incubated 1 h at 25° C.; [3H]spiperone 1 nM on filter for 5 minutes
T1 construct: expressed in transfected cells
Procedure: Compounds were first screened for their D2 affinity in a binding assay using [^3H]spiperone and human D2L receptor cell membranes.
Immediately after, the vacuum was released. 0.4 ml of pre-warmed buffer (25° C.) containing 1 nM [^3H]spiperone was added on the filter for 5 minutes. The incubation was stopped by initiating the vacuum and immediate rinsing with 2×5 ml of ice-cold buffer. The filter-bound radioactivity was measured in a liquid scintillation spectrometer. The principle of the assay is based on the assumption that the faster a compound dissociates from the D2 receptor, the faster [^3H]spiperone binds to the D2 receptor.

[1] = system: Apomorphine-induced agitation, stereotypy in rats; assay: Inhibition of the apomorphine induced agitation test in rats; assay type: in vivo; conditions: Rattus norvegicus, 0.5 h, apomorphine 1.0 mg/kg i.v. at 30 min, male Wiga Wistar rats
Procedure: Male Wiga Wistar rats (180-280 g) were administered test compound (sc: subcutaneously; po: orally; n=3 per dose; dose=0.16, 0.63 and 2.5 mg/kg) or solvent and then challenged with apomorphine (1.0 mg/kg, i.v.) at 30 min. The effects of the test compound on the behavioral changes were evaluated according to all-or-none criteria based on the distribution of results in a large series of control data obtained in solvent-pretreated rats.
Apomorphine (1.0 mg/kg, i.v.)-induced agitation, stereotypy (compulsive sniffing, licking, chewing), was scored every 5 min over the first hour after injection of apomorphine. The score system was: (3) pronounced, (2) moderate, (1) slight, and (0) absent. […] The table below gives the lowest active dose at which 3 out of 3 rats tested met one of the criteria for drug-induced inhibition of agitation.

[2] = system: panel of more than 50 common G-protein coupled receptors (CEREP); assay: Screen in a panel of more than 50 common G-protein coupled receptors (CEREP); assay type: binding; conditions: panel of more than 50 GPCRs
Source text: Selected compounds E15, E16, E17 and E18 were further screened in a panel of more than 50 common G-protein coupled receptors (CEREP) and found to have a clean profile, that is to have low affinity for the tested receptors.

[3] = target: T2, human Dopamine D2L receptor (Homo sapiens, UniProt P14416); assay: In vitro binding affinity for human D2L receptor ([3H]spiperone competition); conditions: membranes of human D2L receptor-transfected CHO cells, 30 min, 37° C.
T2 construct: expressed in transfected cells; host or cells: CHO cells
T2 sequence (P14416 whole entry): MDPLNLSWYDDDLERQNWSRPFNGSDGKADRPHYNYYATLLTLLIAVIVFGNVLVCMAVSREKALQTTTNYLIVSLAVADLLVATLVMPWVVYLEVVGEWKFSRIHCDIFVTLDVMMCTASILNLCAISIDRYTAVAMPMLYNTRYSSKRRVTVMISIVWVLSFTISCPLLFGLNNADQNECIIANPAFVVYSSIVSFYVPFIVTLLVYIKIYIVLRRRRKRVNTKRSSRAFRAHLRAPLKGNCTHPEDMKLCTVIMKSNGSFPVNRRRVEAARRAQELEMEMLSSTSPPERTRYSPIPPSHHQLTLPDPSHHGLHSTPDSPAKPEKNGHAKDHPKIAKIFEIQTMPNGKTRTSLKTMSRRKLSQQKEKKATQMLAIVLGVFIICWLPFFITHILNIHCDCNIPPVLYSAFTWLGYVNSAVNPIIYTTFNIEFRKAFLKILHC
Source text: In order to find antipsychotic compounds active against positive symptoms and having an improved safety profile (low EPS incidence and no metabolic disorders), we have screened for compounds selectively interacting with the dopamine D2 receptor and dissociating fast from this receptor. Compounds were first screened for their D2 affinity in a binding assay using [^3H]spiperone and human D2L receptor cell membranes.
Frozen membranes of human Dopamine D2L receptor-transfected CHO cells were thawed, briefly homogenised using an Ultra-Turrax T25 homogeniser and diluted in Tris-HCl assay buffer containing NaCl, CaCl2, MgCl2, KCl (50, 120, 2, 1, and 5 mM respectively, adjusted to pH 7.7 with HCl) to an appropriate protein concentration optimised for specific and non-specific binding. Radioligand [^3H]Spiperone (NEN, specific activity ˜70 Ci/mmol) was diluted in assay buffer at a concentration of 2 nmol/L. Prepared radioligand (50 μl), along with 50 μl of either the 10% DMSO control, Butaclamol (10^−6 mol/l final concentration), or compound of interest, was then incubated (30 min, 37° C.) with 400 μl of the prepared membrane solution. Membrane-bound activity was filtered through a Packard Filtermate harvester onto GF/B Unifilterplates and washed with ice-cold Tris-HCl buffer (50 mM; pH 7.7; 6×0.5 ml). Filters were allowed to dry before adding scintillation fluid and counting in a Topcount scintillation counter. Percentage specific bound and competition binding curves were calculated using S-Plus software (Insightful).

[4] = po, orally, read-out: po Dose: lowest active dose at which 3 out of 3 rats met a criterion for inhibition of agitation
[5] = sc, subcutaneously, read-out: sc Dose: lowest active dose at which 3 out of 3 rats met a criterion for inhibition of agitation

T1 sequence (P14416 whole entry): as above

% Dissociation (human D2L receptor) [%] | affinity profile for the tested receptors [2] | IC50 [3] [µM] | melting point [°C] | Structure (SMILES) | minimal effective dose [1, 4] [mg/kg] | minimal effective dose [1, 5] [mg/kg]
73 | low affinity | 3.02 | 151.4 | N#Cc1ccc(NC2CCN(Cc3cc(F)cc(C(F)(F)F)c3)CC2)nn1 [Example E17, 6-[1-(3-Fluoro-5-trifluoromethyl-benzyl)-piperidin-4-ylamino]-pyridazine-3-carbonitrile] | 1.25 | 0.63
– | – | 6.76 | 183.1 | N#Cc1ccc(NC2CCN(Cc3ccc(F)c(C(F)(F)F)c3)CC2)nn1 [Example E9, 6-[1-(4-Fluoro-3-trifluoromethyl-benzyl)-piperidin-4-ylamino]-pyridazine-3-carbonitrile] | – | 2.5
– | – | 6.17 | – | Cc1cc(NC2CCN(Cc3cc(F)cc(F)c3)CC2)nnc1C#N [Example E20, 6-[1-(3,5-Difluoro-benzyl)-piperidin-4-ylamino]-4-methyl-pyridazine-3-carbonitrile] | – | 2.5
89.50 | – | 7.59 | 178.6 | N#Cc1ccc(NC2CCN(Cc3ccc(C(F)(F)F)c(F)c3)CC2)nn1 [Example E8, 6-[1-(3-Fluoro-4-trifluoromethyl-benzyl)-piperidin-4-ylamino]-pyridazine-3-carbonitrile] | 2.5 | 2.5
– | – | 3.24 | 151 | N#Cc1ccc(NC2CCN(Cc3cccc(Cl)c3)CC2)nn1 [Example E13, 6-[1-(3-Chloro-benzyl)-piperidin-4-ylamino]-pyridazine-3-carbonitrile] | – | 2.5
84 | – | 0.955 | 191.62 | Cc1ccc(CN2CCC(Nc3ccc(C#N)nn3)CC2)cc1 [Example E6, 6-[1-(4-Methyl-benzyl)-piperidin-4-ylamino]-pyridazine-3-carbonitrile] | – | 2.5
– | – | 4.07 | 189.86 | N#Cc1ccc(NC2CCN(Cc3ccc(F)c(F)c3)CC2)nn1 [Example E1, 6-[1-(3,4-Difluoro-benzyl)-piperidin-4-ylamino]-pyridazine-3-carbonitrile] | – | 2.5
95 | low affinity | 5.75 | 185 | N#Cc1ccc(NC2CCN(Cc3cc(F)c(F)c(F)c3)CC2)nn1 [Example E18, 6-[1-(3,4,5-Trifluoro-benzyl)-piperidin-4-ylamino]-pyridazine-3-carbonitrile] | 1.25 | 0.63
– | – | 2.95 | – | N#Cc1ccc(NC2CCN(Cc3ccccc3)CC2)nn1 [Example D2, 6-(1-Benzyl-piperidin-4-ylamino)-pyridazin-3-carbonitrile] | – | 2.5
– | – | 3.24 | 187.44 | N#Cc1ccc(NC2CCN(Cc3ccc(F)cc3)CC2)nn1 [Example E2, 6-[1-(4-Fluoro-benzyl)-piperidin-4-ylamino]-pyridazine-3-carbonitrile] | 0.63 | 0.63
– | – | > 10 | 125 | N#Cc1ccc(NC2CCN(Cc3cc(C(F)(F)F)cc(C(F)(F)F)c3)CC2)nn1 [Example E11, 6-[1-(3,5-Bis-trifluoromethyl-benzyl)-piperidin-4-ylamino]-pyridazine-3-carbonitrile] | – | –
– | – | 6.46 | 187.3 | Cc1ccc(CN2CCC(Nc3ccc(C#N)nn3)CC2)cc1C(F)(F)F [Example E10, 6-[1-(4-Methyl-3-trifluoromethyl-benzyl)-piperidin-4-ylamino]-pyridazine-3-carbonitrile] | – | > 2.5
– | – | > 10 | – | N#Cc1ccc(NC2CCN(Cc3ccc(OC(F)(F)F)c(Cl)c3)CC2)nn1 [Example E14, 6-[1-(3-Chloro-4-trifluoromethoxy-benzyl)-piperidin-4-ylamino]-pyridazine-3-carbonitrile] | – | –
– | – | 6.31 | 142.5 | N#Cc1ccc(NC2CCN(Cc3cc(C(F)(F)F)ccc3F)CC2)nn1 [Example E12, 6-[1-(2-Fluoro-5-trifluoromethyl-benzyl)-piperidin-4-ylamino]-pyridazine-3-carbonitrile] | – | > 2.5
93.50 | – | > 10 | 243.1 | N#Cc1ccc(NC2CCN(Cc3ccc(C(F)(F)F)cc3)CC2)nn1 [Example E7, 6-[1-(4-Trifluoromethyl-benzyl)-piperidin-4-ylamino]-pyridazine-3-carbonitrile] | 2.5 | 0.63
83.66 | – | 1.82 | – | Cc1c(C#N)nnc(NC2CCN(Cc3cc(F)cc(F)c3)CC2)c1C [Example E19, 6-[1-(3,5-Difluoro-benzyl)-piperidin-4-ylamino]-4,5-dimethyl-pyridazine-3-carbonitrile] | 2.5 | 0.63
– | – | 6.03 | 190.3 | N#Cc1ccc(NC2CCN(Cc3cccc(F)c3)CC2)nn1 [Example E5, 6-[1-(3-Fluoro-benzyl)-piperidin-4-ylamino]-pyridazine-3-carbonitrile] | – | 2.5
82 | – | 0.407 | 171.84 | Cc1ccc(CN2CCC(Nc3ccc(C#N)nn3)CC2)cc1F [Example E4, 6-[1-(3-Fluoro-4-methyl-benzyl)-piperidin-4-ylamino]-pyridazine-3-carbonitrile] | – | 0.16
93.50 | low affinity | 6.61 | 187.9 | N#Cc1ccc(NC2CCN(Cc3cc(F)cc(F)c3)CC2)nn1 [Example E15, 6-[1-(3,5-Difluoro-benzyl)-piperidin-4-ylamino]-pyridazine-3-carbonitrile] | 1.25 | 0.63
79.50 | low affinity | 1.41 | 170.3 | N#Cc1ccc(NC2CCN(Cc3cccc(C(F)(F)F)c3)CC2)nn1 [Example E16, 6-[1-(3-Trifluoromethyl-benzyl)-piperidin-4-ylamino]-pyridazine-3-carbonitrile] | 0.63 | 0.63
87 | – | 1.05 | 209.77 | N#Cc1ccc(NC2CCN(Cc3ccc(Cl)cc3)CC2)nn1 [Example E3, 6-[1-(4-Chloro-benzyl)-piperidin-4-ylamino]-pyridazine-3-carbonitrile] | – | 0.63

Reference: patent publication US8466153B2, “Piperidinylamino-pyridazines and their use as fast dissociating dopamine 2 receptor antagonists” (Janssen Pharmaceutica N.V., priority 2006, dated 2013)
